Measurements: ChEMBL document CHEMBL1133166, “Cyclin-dependent kinase inhibitors: useful targets in cell cycle regulation” (J Med Chem, 2000)
Active and inactive are the calls of the source. The calls are words filed in the database; no cut-off is given here.

How the values were obtained:
[1] = target: Cyclin-dependent kinase 1/cyclin B (Homo sapiens) (UniProt P06493+P14635+Q8WWL7+O95067); conditions: Asteroidea
Description: Inhibition of Cyclin-dependent kinase 1-cyclin B

[2] = target: T1, Cyclin-dependent kinase 4/cyclin D (Homo sapiens) (UniProt P11802+P24385+P30281+P30279); assay: Inhibition of Cyclin-dependent kinase 4-cyclin D (Inactive); type: protein-complex assay; conditions: Asteroidea
[3] = target: Cyclin-dependent kinase 2/cyclin E (Homo sapiens) (UniProt P24864+P24941+O96020); conditions: Asteroidea
Description: Inhibition of Cyclin-dependent kinase 2-cyclin E

[4] = target: T1, Cyclin-dependent kinase 4/cyclin D (Homo sapiens); assay: Inhibition of Cyclin-dependent kinase 4-cyclin D; type: protein-complex assay
[5] = target: Cyclin-dependent kinase 2/cyclin A (Homo sapiens) (UniProt P24941+P20248+P78396); assay: Inhibition of Cyclin-dependent kinase 2-cyclin A; type: protein-complex assay

T1 sequence (P11802 whole entry, looked up): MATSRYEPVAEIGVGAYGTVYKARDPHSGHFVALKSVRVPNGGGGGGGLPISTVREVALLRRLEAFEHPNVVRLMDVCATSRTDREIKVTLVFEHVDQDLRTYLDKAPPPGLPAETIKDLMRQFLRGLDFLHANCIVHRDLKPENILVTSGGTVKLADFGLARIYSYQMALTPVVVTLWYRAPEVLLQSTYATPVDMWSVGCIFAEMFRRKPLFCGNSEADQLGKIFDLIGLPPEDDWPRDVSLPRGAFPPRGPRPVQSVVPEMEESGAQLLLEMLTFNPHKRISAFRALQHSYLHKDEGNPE
T1 sequence (P24385 whole entry, looked up): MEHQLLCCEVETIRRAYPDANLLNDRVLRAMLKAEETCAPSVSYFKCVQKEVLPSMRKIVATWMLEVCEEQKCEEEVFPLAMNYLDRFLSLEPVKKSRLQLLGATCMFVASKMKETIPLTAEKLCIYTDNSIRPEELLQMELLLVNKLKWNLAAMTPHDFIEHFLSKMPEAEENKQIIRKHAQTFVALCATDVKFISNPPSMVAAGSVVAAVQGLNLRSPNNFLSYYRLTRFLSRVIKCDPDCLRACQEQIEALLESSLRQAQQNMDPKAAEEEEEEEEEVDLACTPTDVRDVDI
T1 sequence (P30279 whole entry, looked up): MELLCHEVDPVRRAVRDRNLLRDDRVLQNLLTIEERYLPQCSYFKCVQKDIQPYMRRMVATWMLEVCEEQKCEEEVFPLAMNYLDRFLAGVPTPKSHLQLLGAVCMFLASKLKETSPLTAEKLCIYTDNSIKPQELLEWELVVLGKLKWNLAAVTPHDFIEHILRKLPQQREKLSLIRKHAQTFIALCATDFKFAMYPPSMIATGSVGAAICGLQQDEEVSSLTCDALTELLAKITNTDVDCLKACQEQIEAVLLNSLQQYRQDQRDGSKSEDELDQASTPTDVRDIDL
T1 sequence (P30281 whole entry, looked up): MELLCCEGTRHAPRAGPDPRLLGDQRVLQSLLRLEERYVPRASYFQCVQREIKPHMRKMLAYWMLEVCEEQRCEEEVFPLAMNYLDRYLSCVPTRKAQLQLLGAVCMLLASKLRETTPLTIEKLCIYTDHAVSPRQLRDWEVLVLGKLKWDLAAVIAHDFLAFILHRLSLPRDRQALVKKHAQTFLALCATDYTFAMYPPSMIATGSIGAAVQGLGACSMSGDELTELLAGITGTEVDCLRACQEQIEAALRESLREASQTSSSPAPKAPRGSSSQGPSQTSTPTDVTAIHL

Row | Compound | ID50 [1] [nM] | ID50 [3] [nM] | ID50 [5] [nM] | also measured
1 | O=C1Cc2c([nH]c3ccc(Br)cc23)-c2ccccc2N1 | 35 |  |  | 
2 | Cn1cnc2c(NCc3ccccc3)nc(NCCO)nc21 |  |  |  | IA [2]: inactive
3 | OCCCNc1cc(-c2ccnc(Nc3cccc(Cl)c3)n2)ccn1 | 20 | 50 |  | 
4 | CCn1cnc2c(N)nc(N(c3cccc(Cl)c3)[C@@H]3CCCC[C@@H]3N)nc21 | 16 | 9 |  | ID50 [4]: 29 nM
5 | CNS(=O)(=O)Cc1ccc(/N=N/c2c(O)[nH]c3ccc4ncccc4c23)cc1 |  | 6.2 |  | 
6 | CN1CC[C@H](c2c(O)cc(O)c3c(=O)cc(-c4ccccc4Cl)oc23)[C@H](O)C1 |  |  | 100 | 
7 | CC(C)n1c(=O)ccc2ncc(Nc3ccc(N4CCN(C)CC4)cc3)cc21 | 675 | 270 | 58 | ID50 [4]: 45 nM
8 | CC(C)[C@H](CO)Nc1nc(Nc2ccc(C(=O)O)c(Cl)c2)c2ncn(C(C)C)c2n1 |  |  | 6 | 
9 | CNS(=O)(=O)c1ccc(/N=N/c2c(O)[nH]c3ccc4ncsc4c23)cc1 |  | 3.5 |  | 
